According to patent EP0465913B1, “Diaminotrifluoromethylpyrimidine derivatives, process for their production and phospholipase A2 inhibitor containing them” (ISHIHARA SANGYO KAISHA, LTD., priority 1990, dated 1992):
Read-outs that look alike come from different tables or passages of the source. Values belong to the compound of their own block, whether it stands above or below them.

Assays:
[1] = target: T1, Porcine pancreatic phospholipase A2 (Sus scrofa, UniProt P00592); assay: Phospholipase A2 inhibitory activity, method A (egg yolk lecithin substrate); assay type: biochemical; conditions: 1,000 ppm, 37°C for 30 minutes, read-out: % inhibition of PLA2 (1,000 ppm)
T1 construct: purchased Boehringer Mannheim·Yamanouchi K.K. 161454·122416
Description: To 10 mg of egg yolk lecithin (manufactured by Wako Pure Chemical Industries Ltd.), 1 ml of glycerine, 2 ml of a 50 mM Tris-HCl buffer solution (pH7.5) [Tris(hydroxymethyl)aminomethane (manufactured by Nacalai Tesque K.K.) was adjusted to pH7.5 with hydrochloric acid], 0.5 ml of a 150 mM calcium chloride solution (calcium chloride was dissolved in a 50 mM Tris-HCl buffer solution) and 0.5 ml of a 0.05% Triton-X100 (manufactured by Nacalai Tesque K.K.) solution (Triton-X100 was dissolved in a 50 mM Tris-HCl buffer solution), were added and dispersed by an agate mortar or dispersed by an ultrasonic processor (Model W-225, manufactured by Heat System-Ultrasonics, Inc.) for 5 minutes (30W) to obtain a substrate.
(§1) Porcine pancreatic phospholipase A2 [(161454·122416) manufactured by Boehringer Mannheim·Yamanouchi K.K.] was used.
To a 96 well microtitration plate (flat bottom, manufactured by Sumitomo Bakelite Medical Co., Ltd.), 40 µl of the substrate, 5 µl of a solution prepared by dissolving 10 mg of a test compound in 500 µl of dimethylsulfoxide, followed by an addition of 500 µl of a 50 mM Tris-HCl buffer solution, and 5 µl of an enzyme solution of 20 ng/ml (prepared by diluting the enzyme in a 50 mM Tris-HCl buffer solution), were added and reacted at 37°C for 30 minutes. After termination of the reaction, the released free fatty acid was quantitatively analyzed in accordance with the ACS-ACOD (acyl CoA synthetase-acyl CoA oxidase) method [a kit of NEFA C test wako (manufactured by Wako Pure Chemical Industries, Ltd.) was used]. The quantitative analysis was made by means of Microplate ELISA Reader (Model 2550EIA Reader, manufactured by Bio-Rad Laboratories) at a wavelength of 540 nm. Separately, such experiments as mentioned above, were carried out at various concentrations (2 µg/ml, 1 µg/ml and 0.5 µg/ml) of phospholipase A2 without a test compound. Then, the concentration of the free fatty acid versus the concentration of phospholipase A2 was plotted.
(§2) From this standard curve, the apparent concentration of phospholipase A2 in the case with a test compound, was read. Then, the percent inhibition of the enzyme was calculated by the following formula. Percent inhibition (%) = (l -(A)/(B)) x 100 [formula] • A: Apparent enzyme concentration when a test compound is added. • B: True enzyme concentration when a test compound is added.

[2] = test system: increased vascular permeability induced by acetic acid; assay: Inhibitory activity on increased vascular permeability induced by acetic acid (Mouse Whittle method, method C); assay type: in vivo, ddy male mice; conditions: amount of leaked dye
Description: Using ddy male mice, each test group consisted of 4 or 5 mice. A test compound was mixed with Tween 80 [polyoxyethylenesorbitan monooleate (manufactured by Nacalai Tesque K.K.)], and distilled water was added thereto to obtain a 2% Tween 80 suspension, or it was dissolved in the form of a salt in water to obtain an aqueous solution. A test compound was orally administered, and upon expiration of one hour from the administration, 0.7% acetic acid was intraperitonially injected to each mouse in an amount of 0.1 ml/10 g, and at the same time, 2% brilliant blue was intravenously injected into the tail vein in an amount of 0.1 ml/20 g. Thirty minutes after the injection of brilliant blue, the cervical vertebrae were dislocated under anesthesia by chloroform, and the abdorminal cavity was washed with 5 ml of a physiological saline. The washing solution was subjected to centrifugal separation at 3,000 rpm for 10 minutes, and the amount of the dye in the supernatant was measured at 600 nm absorbance by Microplate ELISA Reader (Model 2550EIA Reader, manufactured by Bio-Rad Laboratories). The inhibition rate of the amount of leaked dye in the group in which a test compound was administered relative to the control group was obtained by the following formula. Inhibition rate (%) = (l -(C)/(D)) x 100 [formula] • C: Amount of leaked dye in the group to which a test compound was administered. • D: Amount of leaked dye in the control group.

[3] = target: T1, Porcine pancreatic phospholipase A2; assay: Phospholipase A2 inhibitory activity, method B (L-α-dipalmitoylphosphatidylcholine substrate); assay type: biochemical; conditions: 1,000 ppm, 37°C for 30 minutes, read-out: % inhibition of PLA2 (1,000 ppm)
Description: To a solution prepared by dissolving 9.2 mg of L-α-dipalmitoylphosphatidylcholine (manufactured by Nichiyu Liposome K.K.) in 0.5 ml of chloroform, a solution prepared by dissolving 32 mg of sodium cholate (manufactured by Wako Pure Chemical Industries, Ltd.) in 0.5 ml of methanol, was added, followed by mixing. The solvent of the mixture was removed under a nitrogen stream, and then 2.5 ml of a 250 mM sodium chloride solution [prepared by dissolving sodium chloride in a 100 mM Tris-HCl buffer solution {tris(hydroxymethyl)aminomethane (manufactured by Nacalai Tesque K.K.) was adjusted to pH8.0 with hydrochloric acid}] was added thereto, and the mixture was dissolved under stirring to obtain a substrate.
as §1
To a 96 well microtitration plate, 20 µl of a solution containing calcium chloride, bovine serum alubmin (manufactured by Sigma Chemical, Co.) and a Tris-HCl buffer solution (pH8.0) at concentrations of 25 mM, 4.5 mg/ml and 100 mM, respectively, 5 µl of a solution prepared by dissolving 10 mg of a test compound in 500 µl of diemthylsulfoxide, followed by an addition of 500 µl of a 200 mM Tris-HCl buffer solution, 5 µl of an enzyme solution (10 µg/ml) [prepared by dissolving the enzyme in a bovine serum alubmin solution (prepared by dissolving bovine serum alubmin in a 100 mM Tris-HCl buffer solution at a concentration of 1 mg/ml)] and 20 µl of the substrate, were added and reacted at 37°C for 30 minutes. After termination of the reaction, the released free fatty acid was quantitatively analyzed in accordance with the ACS-ACOD (acyl CoA synthetase-acyl CoA oxidase) method [a kit of NEFA C test wako (manufactured by Wako Pure Chemical Industries, Ltd.) was used]. The quantitative analysis was made by means of Microplate ELISA Reader (Model 2550EIA Reader, manufactured by Bio-Rad Laboratories) at a wavelength of 540 nm. Separately, such experiments as mentioned above, were carried out at various concentrations (1 µg/ml, 0.75 µg/ml, 0.5 µg/ml and 0.25 µg/ml) of phospholipase A2 without a test compound. Then, the concentration of the free fatty acid versus the concentration of phospholipase A2 was plotted.
as §2

[4] = Acute toxicity, intravenous injection (LD50); assay type: in vivo; conditions: mouse, in vivo, ddy male mice, sodium salt, mortality over one week
Description: Administration route: Intravenous injection
Using ddy male mice (body weight: 25 - 30 g), each test group consisted of 5 mice. A test compound was dissolved in the form of a sodium salt in a physiological saline or in a 5% glucose aqueous solution, and intravenously injected in an amount of 0.1 ml/10 g body weight. After the injection, the mortality rate was obtained over one week, and the median lethal dose LD50 (mg/kg) was determined.

[5] = test system: experimental acute pancreatitis model; assay: Effects against acute pancreatitis (Test Example 8, closed duodenal loop method, lesion scores); assay type: in vivo, Crj-CD male rats; conditions: sodium salt, 6 hours after ventrotomy; for inhibition in vivo at 10 mg/kg: Rattus norvegicus, 10 mg/kg single intravenous injection
Description: Using Crj-CD male rats, each test group consisted of 3 rats. An experimental acute pancreatitis model was prepared by a closed duodenal loop method under anethesia with halothane (manufactured by Hoechst Japan) and nitrous oxide (manufactured by Sumitomo Seika K.K.) applied by a general inhalation anesthesia machine (Model EM2 and halothane evaporator F-Model). Each compound (subjected to the test in the form of a sodium salt) was continuously intravenously injected into the tail vein in an amount of 0.4 ml/100 g to 0.6 ml/100 g at a rate of 0.05 ml per minute by a pump (Technicon AA II Proportioning Pump III, manufactured by Technicon Instruments Corporation) or rapidly intravenously injected. No injection was made to a control group. Gross pathological examination was conducted upon expiration of 6 hours after the ventrotomy in the case of the group to which the compound was administered. With respect to each of four lesions among pancreatic lesions i.e. petechia, ecchymosis, pancreatic necrosis and abdominal fatty necrosis, the grade and the distribution of lesions were scored with five grades of 0, 0.5, 1, 2 and 3 (severe lesions are 3). The sum of all lesions was designated as scores of pancreatitis lesions, and the sum of the score of petechia and the score of ecchymosis only was designated as scores of hemorrhagic lesions. The pancreatitis inhibition rate (%) and the hemorrhage inhibition rate (%) were obtained by the following formulas, and the results are shown in Table 13. Pancreatitis inhibition rate (%) = (l -(H)/(G)) x 100 [formula] • H: Scores of pancreatitis lesions of the group to which a test compound was administered. • G: Scores of pancreatitis lesions of the control group. Hemorrhage inhibition rate (%) = (l -(J)/(I)) x 100 [formula] • J: Scores of hemorrhagic lesions of the group to which a test compound was administered. • I: Scores of hemorrhagic lesions of the control group.

carrageenin edema = assay: Inhibitory activity on carrageenin edema; assay type: in vivo, Wistar male rats; conditions: rat; dose 50 mg/kg orally; paw swelling volume three hours after carrageenin
Description: Using Wistar male rats (body weight: about 100 g), each test group consisted of 5 rats. A test compound was mixed with Tween 80 [polyoxyethylenesorbitan monooleate (manufactured by Nacalai Tesque K.K.)], and distilled water was added thereto to obtain a 2% Tween 80 suspension, or it was dissolved in the form of a salt in water to obtain an aqueous solution. Either the suspension or the aqueous solution was orally administered in an amount of 200 mg/kg, 100 mg/kg, 50 mg/kg or 25 mg/kg. One hour later, 0.1 ml of a 1% λ-carrageenin solution dissolved in a physiological saline was injected subcutaneously to the right hind paw of each rat to cause inflamation. Three hours later, the paw volume was measured by a paw volume measuring device (manufactured by Ugobasiee K.K.). A swelling volume was obtained from the difference from the value before the inflammation. Inhibition rate (%) = (l -(F)/(E)) x 100 [formula] • F: Average swelling volume in the group to which a test compound was administered. • E: Average swelling volume in the control group.

[6] = read-out: Inhibition rate of hemorrhagic lesions (%)
[7] = read-out: Inhibition rate of pancreatitis lesions (%)

T1 sequence (P00592 23-146): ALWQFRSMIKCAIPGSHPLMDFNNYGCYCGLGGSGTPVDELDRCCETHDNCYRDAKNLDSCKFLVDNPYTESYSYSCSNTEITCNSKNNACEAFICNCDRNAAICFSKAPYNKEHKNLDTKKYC

inhibition at 1000 ppm [1]: 74%
SMILES: CCCCCCCCC(=O)Nc1cc(C(F)(F)F)cnc1NS(C)(=O)=O [Compound No. 4]
Inhibition rate (%) ([2]; dose 50 mg/kg orally): 43%

inhibition at 1000 ppm [3]: 50%
SMILES: CC(C)(C)CC(=O)Nc1cc(C(F)(F)F)cnc1NS(C)(=O)=O [compound 7]
Inhibition rate (%) ([2]; dose 20 mg/kg orally): 53%

SMILES: CS(=O)(=O)Nc1ncc(C(F)(F)F)cc1NC(=O)C(F)(F)F [compound 12]
inhibition at 1000 ppm [1]: 89%
LD50 at 168 h ([4]; iv): > 150 mg/kg

inhibition at 1000 ppm [1]: 74%
SMILES: CCS(=O)(=O)Nc1ncc(C(F)(F)F)cc1NC(=O)C(F)(F)Cl [compound 20]
Inhibition rate (%) ([2]; dose 20 mg/kg orally): 48%

SMILES: CCOC(=O)NC(=S)Nc1cc(C(F)(F)F)cnc1NS(=O)(=O)CC [compound 21]
inhibition at 1000 ppm [1]: 62%
Inhibition rate of hemorrhagic lesions (%) ([5]; 27 mg/kg continuous intravenous injection): 57%
LD50 at 168 h [4]: > 75 mg/kg

SMILES: O=C(Nc1cc(C(F)(F)F)cnc1NS(=O)(=O)c1ccccc1)C(F)(F)F [compound 24]
inhibition at 1000 ppm [1]: 66%
Inhibition rate of hemorrhagic lesions (%) ([5]; 11 mg/kg continuous intravenous injection): 68%
LD50 at 168 h ([4]; iv): > 150 mg/kg

SMILES: CS(=O)(=O)NNc1ncc(C(F)(F)F)cc1NC(=O)C(F)(F)C(F)(F)F [compound 40]
LD50 at 168 h ([4]; iv): 50 to 100 mg/kg

inhibition at 1000 ppm [1]: 89%
SMILES: CNc1ncc(C(F)(F)F)cc1NC(=O)C(F)(F)C(F)(F)F [compound 41]
Inhibition rate (%) ([2]; dose 100 mg/kg orally): 85%

SMILES: CS(=O)(=O)Nc1ncc(C(F)(F)F)cc1NC(=O)Cc1ccccc1 [compound 60]
inhibition in vivo at 10 mg/kg [5, 6]: 92%
inhibition in vivo at 10 mg/kg [5, 7]: 94%
LD50 at 168 h ([4]; iv): > 60 mg/kg
inhibition at 1000 ppm [3]: 41%
Inhibition rate (%) (carrageenin edema): 27%

SMILES: CS(=O)(=O)Nc1ncc(C(F)(F)F)cc1NC(=O)Cc1cccs1 [compound 61]
inhibition in vivo at 10 mg/kg [5, 6]: 79%
inhibition in vivo at 10 mg/kg [5, 7]: 64%
LD50 at 168 h ([4]; iv): > 80 mg/kg
inhibition at 1000 ppm [3]: 36%

SMILES: CS(=O)(=O)Nc1ncc(C(F)(F)F)cc1NC(=O)C1CC=CCC1 (stereo not drawn) [compound 68]
inhibition in vivo at 10 mg/kg [5, 6]: 74%
inhibition in vivo at 10 mg/kg [5, 7]: 77%
LD50 at 168 h ([4]; iv): > 80 mg/kg
inhibition at 1000 ppm [3]: 81%

SMILES: CC=CC=CC(=O)Nc1cc(C(F)(F)F)cnc1NS(C)(=O)=O [compound 73]
inhibition in vivo at 10 mg/kg [5, 6]: 74%
inhibition in vivo at 10 mg/kg [5, 7]: 79%
LD50 at 168 h ([4]; iv): > 80 mg/kg
inhibition at 1000 ppm [3]: 53%
Inhibition rate (%) (carrageenin edema): 20%

SMILES: CS(=O)(=O)Nc1ncc(C(F)(F)F)cc1NC(=O)c1ccc(F)c(F)c1 [compound 77]
inhibition in vivo at 10 mg/kg [5, 6]: 66%
inhibition in vivo at 10 mg/kg [5, 7]: 70%
LD50 at 168 h ([4]; iv): > 80 mg/kg
inhibition at 1000 ppm [3]: 61%
Inhibition rate (%) (carrageenin edema): 22%

SMILES: O=C(Nc1cc(C(F)(F)F)cnc1NS(=O)(=O)C(F)(F)F)C1CCCCC1 [compound 91]
LD50 at 168 h ([4]; iv): > 80 mg/kg
inhibition at 1000 ppm [3]: 81%
Inhibition rate (%) (carrageenin edema): 23%

SMILES: CCCOC(=O)Nc1cc(C(F)(F)F)cnc1NS(=O)(=O)C(C)C [compound 106]
inhibition in vivo at 10 mg/kg [5, 6]: 96%
inhibition in vivo at 10 mg/kg [5, 7]: 97%
LD50 at 168 h [4]: > 20 mg/kg
inhibition at 1000 ppm [3]: 78%
Inhibition rate (%) (carrageenin edema): 19%
